Seven molecules from patent US7056931B2, “2-substituted 1,2,3,4-tetrahydroquinolines and derivatives thereof, compositions and methods” (Eli Lilly and Company, priority 2001, dated 2006) can be followed below.

The test system of assay [1] is MCF-7 breast adenocarcinoma cells. In words: MCF-7 Proliferation Assay. In kind it is cell-based. To be noted: antagonist mode, E2 10 pM, 14C-thymidine, B = class at 1 micromolar; for IC50: Homo sapiens, MCF7. The protocol:
MCF-7 Proliferation Assay
MCF-7 breast adenocarcinoma cells (ATCC HTB 22) are maintained in MEM (minimal essential medium, phenol red-free, Gibco BRL) supplemented with 10% fetal bovine serum (FBS) (VN), L-glutamine (2 mM), sodium pyruvate (1 mM), HEPES ((N-[2-hydroxyethyl]piperazine-N′-[2-ethanesulfonic acid]) 10 mM}, non-essential amino acids(0.1 mM)and Penicillin Streptomycin(1×). Seven days prior to assay, MCF-7 cells are switched to assay media which is the same as maintenance medium except supplemented with 10% dextran-coated charcoal-stripped fetal bovine serum (DCC-FBS) assay medium in place of 10% FBS. MCF-7 cells are removed from flasks using 10× Trypsin EDTA (phenol red free, Gibco BRL) and diluted to 1× in (Ca++/Mg++ free HBSS (phenol red-free). Cells are adjusted to 80,000 cells/ml in assay medium. Approximately 8,000 cells (100 μl) are added to each well in 96 well Cytostar T scintillation plates (Amersham) and incubated at 37° C. in a 5% CO2 humidified incubator for 24 hours to allow cell adherence and equilibration after transfer. Serial dilutions of drugs are prepared in assay medium at 4× the final desired concentration). A 50 μl aliquot of drug dilutions (at 4× the final assay concentration) is transferred to duplicate wells followed by 50 μl assay medium for the agonist mode or 50 μl of 40 pM of E2 for the antagonist mode to a final volume of 200 μl. For each of the agonist plates, a basal level (media) and a maximum stimulated level (with 1 μM E2) is determined. For each of the antagonist plates, a basal level (media) and a E2 (10 pM) alone control is determined. After an additional 48 hours at 37° C. in a 5% CO2 humidified incubator, 20 μl of assay medium containing 0.01 μCi of ^14C-thymidine (52 mCi/mmol, […], Amersham) is added to each well. The plates are incubated overnight in the same incubator and then counted on the Wallac Microbeta counter. […] For the agonist mode, an EC50 and percent of maximum E2 stimulation and concentration of maximum stimulation is calculated.

Assay [2] concerns Ishikawa human endometrial tumor cells. The assay can be described thus: Ishikawa Alkaline Phosphatase Assay. In kind it is cell-based. To be noted: for EC50 / IC50: Homo sapiens, Ishikawa; for EC50 / Agonist % Eff: agonist mode; for Agonist % Eff: % efficacy versus the response to Tamoxifen; for % Eff / IC50: antagonist mode; for % Eff: % efficacy versus E2 (1 nM) alone; for IC50: with E2 (1 nM). The source says: Ishikawa Alkaline Phosphatase Assay
Ishikawa human endometrial tumor cells are maintained in MEM (minimum essential medium, with Earle's salts and L-Glutamine, Gibco BRL, Gaithersburg, Md.), supplemented with 10% fetal bovine serum (FBS) (V/V), (Gibco BRL). One day prior to assay, growth media is changed to assay medium, DMEM/F-12 (3:1) (Dulbecco's Modified Eagle Medium: Nutrient Mixture F-12, 3:1 Mixture, phenol red-free, Gibco BRL) supplemented with 5% dextran coated charcoal stripped fetal bovine serum (DCC-FBS) (Hyclone, Logen, Utah), L-Glutamine (2 mM), MEM sodium pyruvate (1 mM), HEPES (N-[2-hydroxyethyl]piperazine-N′-[2-ethanesulfonic acid] 2 mM) all from Gibco BRL). After an overnight incubation, ishikawa cells are rinsed with Dulbecco's
Phosphate Buffered Saline (1×) (D-PBS) without Ca^+2 and Mg^+2 (Gibco BRL), and typsinized by a 3 minute incubation with 0.25% Trypsin/EDTA, phenol red-free (Gibco BRL). Cells are resuspended in assay medium and adjusted to 250,000 cells/ml. Approximately 25,000 cells in a 100 ul media are added to flat-bottom 96 wells microculture plates (Costar 3596) and incubated at 37° C. in a 5% CO2 humidified incubator for 24 hours. The next day, serial dilutions of compounds are prepared in assay medium (at 6 times the final concentration in the assay). The assay is run in dual mode, agonist and antagonist modes. For the agonist mode, plates receive 25 μl/well of assay medium followed by 25 μl/well of diluted compounds (at 6× the final concentrations). For the antagonist mode, plates receive 25 μl/well of 6 nM E2 (β-Estradiol, Sigma, St. Louis, Mo.) followed by 25 μl/well of diluted compounds (at 6× the final concentrations). After an additional 48-hour incubation at 37° C. in a 5% CO2 humidified incubator, media is aspirated from wells and 100 μl fresh assay medium is added to each microculture. Serial dilutions of compounds are prepared and added to the cells as described above. After an additional 72 hour incubation at 37° C. in a 5% CO2 humidified incubator, the assay is quenched by removing media and rinsing plates twice in Dulbecco's Phosphate Buffered Saline (1×) (D-PBS) (Gibco BRL). The plates are dried for 5 min and frozen at −70° C. for at least 1 hour. The plates are then removed from the freezer and allowed to thaw at room temperature. To each well, 100 μl of 1-Step™ PNPP (Pierce Chemical Company, Rockford, Ill.) is added. After a 20-minute incubation, plates are read on a spectophotometer at 405 nm. The data is fitted to a linear interpolation to derive EC50 (for agonist mode) or IC50 (for antagonist mode) values. For the agonist mode, a % efficacy for each compound is calculated versus the response to Tamoxifen. For the antagonist mode, a % efficacy for each compound is calculated versus E2 (1 nM) alone.

In assay [3] the target is T1, ERAlpha receptor (PanVera) (Homo sapiens, UniProt P03372).
T1 construct: purchased PanVera
T1 sequence (P03372 1-595): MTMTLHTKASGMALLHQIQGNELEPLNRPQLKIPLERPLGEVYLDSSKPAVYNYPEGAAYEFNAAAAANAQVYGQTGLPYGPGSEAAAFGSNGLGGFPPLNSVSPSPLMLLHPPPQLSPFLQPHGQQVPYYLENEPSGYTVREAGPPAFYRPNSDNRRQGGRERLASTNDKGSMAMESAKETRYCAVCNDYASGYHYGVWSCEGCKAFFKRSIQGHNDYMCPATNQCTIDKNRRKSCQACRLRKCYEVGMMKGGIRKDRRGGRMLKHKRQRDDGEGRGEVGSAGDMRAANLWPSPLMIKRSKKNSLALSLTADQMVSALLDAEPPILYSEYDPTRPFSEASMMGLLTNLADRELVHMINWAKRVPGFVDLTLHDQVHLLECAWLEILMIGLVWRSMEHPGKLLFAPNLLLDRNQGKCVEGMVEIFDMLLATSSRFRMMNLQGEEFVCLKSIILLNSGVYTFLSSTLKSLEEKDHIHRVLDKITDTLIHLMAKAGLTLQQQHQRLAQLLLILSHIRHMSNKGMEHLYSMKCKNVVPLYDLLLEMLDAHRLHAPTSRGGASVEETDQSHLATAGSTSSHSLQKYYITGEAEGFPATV
The assay can be described thus: ER competition binding assay (3H-Estradiol), ERalpha. The settings on record: IC50 converted to Ki by Cheng-Prusoff; 3H-Estradiol competition; A = class at 10 microMolar; read-out: Ki (ERα). Here is the method: (§1) Competition binding assay is run in a buffer containing 50 mM Hepes, pH 7.5, 1.5 mM EDTA, 150 mM NaCl, 10% glycerol, 1 mg/ml ovalbumin and 5 mM DTT, using 0.025 μCi per well ^3H-Estradiol(NEN #NET517 at 118 Ci/mmol, 1 mCi/ml), 10 ng/well ERAlpha or ERbeta receptor (PanVera). Competing compounds are added at 10 different concentrations. Non-specific binding is determined in the presence of 1 μM of 17-B Estradiol. The binding reaction (140 μl) is incubated for 4 hours at room temperature, then 70 μl of cold DCC buffer is added to each reaction (DCC buffer contains per 50 ml of assay buffer, 0.75 g of charcoal (Sigma) and 0.25 g of dextran (Pharmacia)). Plates are mixed 8 minutes on an orbital shaker at 4° C. Plates are then centrifuged at 3,000 rpm at 4° C. for 10 minutes. An aliquot of 120 μl of the-mix is transferred to another 96-well, white flat bottom plate (Costar) and 175 μl of Wallac Optiphase “Hisafe 3” scintillation fluid is added to each well. Plates are sealed and shaken vigorously on an orbital shaker. After an incubation of 2.5 hrs, read plates in a Wallac Microbeta counter. […] The Kd for ^3H-Estradiol is determined by saturation binding to ER alpha and ER beta receptors. The IC50 values for compounds are converted to Ki using Cheng-Prusoff equation and the Kd determined by saturation binding assay.

Assay [4] has as its target T2, ERbeta receptor (PanVera) (Homo sapiens, UniProt Q92731).
T2 construct: purchased PanVera
The assay can be described thus: ER competition binding assay (3H-Estradiol), ERbeta. To be noted: IC50 converted to Ki by Cheng-Prusoff; 3H-Estradiol competition; A = class at 10 microMolar; read-out: Ki (ERβ). The protocol:
as §1

T2 sequence (Q92731 whole entry): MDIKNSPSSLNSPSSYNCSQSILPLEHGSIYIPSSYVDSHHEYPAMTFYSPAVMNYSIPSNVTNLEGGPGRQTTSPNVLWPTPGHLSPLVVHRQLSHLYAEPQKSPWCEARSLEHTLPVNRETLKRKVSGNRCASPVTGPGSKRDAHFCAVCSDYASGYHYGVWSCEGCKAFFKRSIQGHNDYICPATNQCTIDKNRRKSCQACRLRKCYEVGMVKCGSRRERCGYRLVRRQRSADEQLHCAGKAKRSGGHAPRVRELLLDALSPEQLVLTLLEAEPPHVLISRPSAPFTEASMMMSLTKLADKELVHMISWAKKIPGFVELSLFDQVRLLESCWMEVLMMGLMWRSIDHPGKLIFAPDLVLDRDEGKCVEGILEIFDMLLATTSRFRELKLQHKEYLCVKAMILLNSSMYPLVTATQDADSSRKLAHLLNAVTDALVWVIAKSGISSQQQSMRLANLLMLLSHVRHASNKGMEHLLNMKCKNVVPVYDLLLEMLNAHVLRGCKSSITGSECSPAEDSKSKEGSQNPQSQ

Regarding `COc1ccc(C2CCc3cc(OC)ccc3N2C(=O)c2ccc(OCCN3CCCCC3)cc2)cc1` (stereo not drawn) [Example 1, [6-Methoxy-2-(4-methoxyphenyl)-3,4-dihydro-2H-quinolin-1-yl]-[4-4-(2-piperidin-1-yl-ethoxy)phenyl]methanone], the “IC50 (MCF7)” value in assay [1] was “B^† (B means < 50% inhibition at 1 micromolar)”. In assay [2], the concentration giving a half-maximal response (EC50) worked out at 22.9 nM, the “Agonist % Eff” value worked out at 18% and the “% Eff” value was 18%.

As to `COc1ccc2c(c1)CCC(c1ccccc1)N2C(=O)c1ccc(OCCN2CCCCC2)cc1` (stereo not drawn) [Example 2], in assay [1], the “IC50 (MCF7)” value was “B (B means < 50% inhibition at 1 micromolar)”. Also, in assay [2], the “Agonist % Eff” value was −5% and the “% Eff” value is listed as 28%.

`O=C(c1ccc(OCCN2CCCCC2)cc1)N1c2ccc(O)cc2CCC1c1ccc(O)cc1` (stereo not drawn) [Example 3]: the Ki in assay [3] stood at 87.8 nM. In assay [4], the Ki stood at 1160 nM. Besides, in assay [1], the midpoint of inhibition, the IC50, lay at 989 nM. Further, in assay [2], the concentration giving a half-maximal response (EC50) was 239 nM, the “Agonist % Eff” value is listed as 29% and the “% Eff” value was found to be 17%.

Turning to `O=C(c1ccc(OCCN2CCCCC2)cc1)N1c2ccc(O)cc2CCC1c1ccccc1` (stereo not drawn) [Example 4], the Ki in assay [3] was 28.9 nM. In addition, in assay [2], the EC50 was found to be 84.8 nM, the IC50 was determined as 667 nM, the “Agonist % Eff” value turned out to be 44% and the “% Eff” value was 47%.

Consider `Oc1ccc(C2CCc3cc(O)ccc3N2Cc2ccc(OCCN3CCCCC3)cc2)cc1` (stereo not drawn) [Example 7, 2-(4-Hydroxy-phenyl)-1-[4-(2-piperidin-1-yl-ethoxy)-benzyl)-1,2,3,4-tetrahydroquinolin-6-ol], for which the inhibition constant Ki in assay [3] came to 0.4 nM. The 50% inhibitory concentration (IC50) in assay [1] worked out at 477 nM. Besides, in assay [2], the midpoint of the response, the EC50, lay at 219 nM; the “Agonist % Eff” value was determined as 28%; the “% Eff” value is 17%.

For the molecule `Oc1ccc2c(c1)CCC(c1ccccc1)N2Cc1ccc(OCCN2CCCCC2)cc1` (stereo not drawn) [Example 8, 2-Phenyl-1-[4-(2-piperidin-1-yl-ethoxy)-benzyl]-1,2,3,4-tetrahydroquinolin-6-ol], the Ki in assay [3] amounted to 1.3 nM. The inhibition constant Ki in assay [4] is 4.1 nM. For the same molecule, inhibition in assay [1] was half-maximal at 532 nM (IC50). Also, in assay [2], the EC50 amounted to 28.4 nM, the IC50 was found to be 716 nM, the “Agonist % Eff” value was determined as 31% and the “% Eff” value worked out at 63%.

On to `Oc1cccc(C2CCc3cc(O)ccc3N2Cc2ccc(OCCN3CCCCC3)cc2)c1` (stereo not drawn) [Example 12, 2-(3-Hydroxy-phenyl)-1-[4-(2-piperidin-1-yl-ethoxy)-benzyl]-1,2,3,4-tetrahydro-quinolin-6-ol], for which the inhibition constant (Ki) in assay [4] is 5.9 nM. The concentration for half-maximal inhibition (IC50) in assay [1] was 385 nM. Besides, in assay [2], the response was half-maximal at 142 nM (EC50), the half-maximal inhibitory concentration (IC50) worked out at 892 nM, the “Agonist % Eff” value is 29% and the “% Eff” value stood at 31%.
